From patent publication US4277465A, “Adjuvant for promoting absorption of therapeutically active substances through the digestive tract” (Kyoto Yakuhin Kogyo Kabushiki Kaisha, priority 1978, dated 1981)
“And” between values parts separate entries of the source, which are not always exact repeats. Equal values may be shown once.

How the values were obtained:
[1] = Rectal ointment of AB-PC.Na with enamine derivative, blood concentration; type: in vivo, rabbit; conditions: rectal ointment AB-PC.Na 10%, enamine derivative 10%, dose 15 mg AB-PC.Na/kg
Procedure: AB-PC and cephalexin (briefly, CEX), both of which are sparingly absorbed from the rectum, are also tested. Thus, enamine derivatives (I) and these antibiotics were used to prepare rectal ointments in accordance with established practice. The ointments were administered to rabbits to investigate the peak blood concentrations (μg/ml) and AUC (μg.min./ml).
Dose: 15mg AB-PC . Na/kg
Compounds 3, 5, 13 and 14 were used as said enamine derivatives (I) in Recipes 4, 5, 6 and 7, respectively.

[2] = Rectal insulin suppository with Compound 3, blood glucose concentration (glucoseoxidase method); type: in vivo, rabbit; conditions: 3 I.U. insulin per animal + Compound 3 0.05 g in Witepsol H-15
Procedure: The test was conducted by the glucoseoxidase method. […] The largest depression of blood glucose from the pre-medication level was expressed in % response.

[3] = Rectal inulin dosage form with adjuvant, urinary recovery of inulin; type: in vivo, dog; conditions: in Witepsol H-15, level of addition of enamine derivative 5%, Lunt method
Procedure: (§1) The following dosage forms (dispersed in Witepsol H-15®) were rectally administered to dogs and humans to measure the urinary recovery rates of inulin. […] The test was carried out by the Lunt method.

[4] = Rectal inulin suppository with adjuvant, urinary recovery of inulin; type: in vivo, rabbit
Procedure: The above components were used to prepare a suppository in accordance with established pharmaceutical practice. The suppository was rectally administered to rabbits (body weights 2.0-2.5 kg) and the blood concentrations were determined.
The results, shown in FIG. 7, indicates the versatility of enamine derivative (I). The amount of inulin excreted in the urine was 18% of the dose administered.
as §1

[5] = Rectal ointment of CET-Na with enamine derivative, blood concentration; type: in vivo, rabbit
Procedure: Cephalothin sodium (briefly CET-Na), a drug which is sparingly absorbed from the rectum, was selected for a test. Thus, CET-Na was dispersed in liquid paraffin-white vaseline base to prepare rectal ointment. The ointment was administered to rabbits by the rectal route. […] The blood concentration was measured in conformity with the biological assay method in the Antibiotic Standard of Japan. […]

[6] = Rectal inulin dosage form with adjuvant, urinary recovery of inulin; type: in vivo, human; conditions: in Witepsol H-15, level of addition of enamine derivative 1%, Lunt method
Procedure: as §1

[7] = Stability in aqueous solution (half-life of enamine derivatives); type: physicochemical; conditions: pH 7.4 phosphate buffer, μ 0.15, 25° C., UV absorption spectrometry; "stable" = enamine structure retained even after 6 hours
Procedure: To examine the stability in water of the enamine derivatives (I) obtained above, some representative compounds were selected and their half-lives [t 0.5 (min.)] in pH 7.4 phosphate buffer (μ: 0.15, temp.: 25° C.) were determined by ultraviolet absorption spectrometry. In the Table, "stable" means that the enamine structure was retained even after 6 hours.

[8] = Oral capsule of AB-PC sodium with adjuvant, blood concentration of AB-PC; type: in vivo; conditions: AB-PC sodium 15 mg/kg + Compound 3 10 mg/kg, one value per rabbit, sodium salt
Procedure: Ampicillin (briefly, AB-PC) sodium
Capsules each containing the above indicated amounts of components were prepared by the conventional procedure and administrered to 3 rabbits. Immediately thereafter, each animal was given 20 ml of water and the concentration of AB-PC in the blood was measured by the biological assay method. In the figure, white circles represent AB-PC alone and black circles represent the capsule according to this invention.
The blood concentrations were measured in conformity with the Antibiotic Standard of Japan. The cup method was employed with Sarcina lutea.

[9] = CET, rectal ointment CET.Na 20%, enamine derivative 10%, dose 50 mg CET.Na/kg

CCOC(=O)C=C(C)N[C@@H](C(=O)[O-])c1ccccc1.[Na+] [Compound 3, N-(1-Methyl-2-ethoxycarbonylvinyl)-D-phenylglycine sodium salt]
AUC [1]: 270 µg·min/mL
Peak blood concentration [1]: 4.8 µg/mL
reduction of blood glucose concentration from the pre-medication level [2]: about 50%
% Urinary recovery [3]: 20%
% Urinary recovery ([4]; inulin, rectal, in Witepsol H-15, level of addition of enamine derivative 10%, Lunt method): 8%
amount of inulin excreted in the urine ([4]; rectal suppository, inulin 0.25 g + Compound 3 0.05 g in Witepsol H-15): 18 % of the dose administered
AUC [5, 9]: 445 µg·min/mL
Peak blood concentration [5, 9]: 14.4 µg/mL
change in blood concentration of CET (in words) ([5]; rectal ointment CET-Na 20%, Compound 3 10%, dose 50 mg CET-Na/kg, FIG. 3): high CET level in the blood could by very quickly achieved
% Urinary recovery [6]: 11%
half-life t 0.5 [7]: 26.1 min
area under the blood-concentration curve (AUC) of AB-PC relative to AB-PC alone [8]: 1.52 times and 1.99 times and 1.73 times
